The results in this text go back to patent US10676442B2, “Salt derivative of tetrahydroisoquinoline and crystalline thereof and preparation method therefore and application thereof” (CHINA STATE INSTITUTE OF PHARMACEUTICAL INDUSTRY, priority 2016, dated 2020).

“And” between values parts separate entries of the source, which are not always exact repeats. Identical values can stand only once.

Data set [1] can be described thus: Pharmacokinetics after intravenous administration in SD rats. The conditions noted are these: α-crystalline form, compared with SIPI-409 hydrochloride. The class given is in vivo.
Data set [2] can be described thus: Pharmacokinetic study, single oral dose in SD rats (LC-MS/MS of plasma). The class given is in vivo. As for the experimental part: SIPI-409 hydrochloride and SIPI-409 phosphate were administrated peros (PO), and were studied on in vivo pharmacokinetic parameters and bioavailability in SD rats. Concentrations of SIPI-409 hydrochloride and SIPI-409 phosphate in plasma were measured at intervals using Liquid Chromatography-Mass Spectrometry-Mass Spectrometry assay.
The obtained plasma concentration data were processed using the pharmacokinetic processing software WinNonlin 5.2 to calculate the relevant pharmacokinetic parameters according to non-compartmental model.

Data set [3] in a line: Humidity stability investigation (92.5% RH, XRPD). The class given is physicochemical. As to conditions: 92.5% RH (saturated KNO3), XRPD on day 0, 5, 10, 20 and 30. As for the experimental part:
The phosphate, nicotinate, glycolate, oxalate, orotate, benzenesulfonate and sulfate of SIPI-409 were kept in a 92.5% RH (saturated KNO3) atomosphere. XRPD measurements were carried out on samples taken out on day 0, 5, 10, 20 and 30.

Data set [4] can be described thus: Measurement of solubility in water by liquid chromatography. The class given is physicochemical. As for the experimental part:
Solubility of SIPI-409 and of the salt derivatives thereof in water was measured by liquid chromatography.
Main steps: preparing SIPI-409 standards at the concentrations of 5 ? g/mL, 10 ? g/mL, 50 ? g/mL, 100 ? g/mL, 200 ? g/mL and establishing the standard curve of these preparations.
Chromatography Conditions:
Chromatography column: Phenomenex Luna 5u C18(2) 100 A 4.6×200 mm
Detection wave-length: 210 nm
Mobile phase: acetonitrile/phosphate buffer (0.68 g/L monopotassium phosphate, pH was adjusted to 3.0 using triethylamine)=68/32
Column temperature: 30° C.
Load volume: 10 ? L
Residence time: around 6.3 min
Sample treatment: the test samples were prepared into saturated solutions in water (suspensions) and shaken for 12 hrs at 30° C., which were further ultrasonicated for 30 s, followed by filtration and preparation of serial dilutions as appropriate, which were then analyzed by HPLC.

Data set [5] in a line: Light stability investigation (light incubator, XRPD). The class given is physicochemical. As for the experimental part: The phosphate, nicotinate, glycolate, oxalate, orotate, benzenesulfonate and sulfate of SIPI-409 were placed in a light incubator. XRPD measurements were carried out on samples taken out on day 0, 5, 10, 20 and 30.
A short description of data set [6]: Hygroscopicity investigation (dynamic vapor sorption). The class given is physicochemical. The conditions noted are these: dynamic vapor sorption analyzer. The text has this: Hygroscopicity was further investigated by placing the phosphate, nicotinate, glycolate, oxalate, orotate, benzenesulfonate and sulfate of SIPI-409 in a dynamic vapor sorption (DVS) analyzer.

Data set [7] in a line: Temperature stability investigation (60° C. oven, XRPD). The class given is physicochemical. The conditions noted are these: oven at 60° C., XRPD on day 0, 5, 10, 20 and 30. As for the experimental part:
Phosphate, nicotinate, glycolate, oxalate, orotate, benzenesulfonate and sulfate of SIPI-409 were placed in an oven at 60° C. XRPD measurements were carried out on samples taken out on day 0, 5, 10, 20 and 30.

Setting [8] is: PO 10 mg/kg (based on SIPI-409), single dose, 10 mg/kg.

As for `COc1cc2c(cc1OCc1ccccc1)C(Cc1cccc(NS(C)(=O)=O)c1)NCC2` (stereo not shown) [SIPI-409 Phosphate, 1-(3-methanesulfonamidobenzyl)-6-methoxy,7-benzyloxy-1,2,3,4-tetrahydroisoquinoline], the “Pharmacokinetic parameters after intravenous administration” value in data set [1] is reported as “substantially comparable to SIPI-409 hydrochloride”. For the same molecule, the AUC(0-t) (as a rule, the area under the concentration-time curve up to a stated or last time point) in data set [2] (setting [8]) was 1366.89 ng·h/mL. Also, in data set [2] (setting [8]), the “AUC(0-∞)” value was 1437.93 ng·h/mL. Also, the “F (bioavailability)” value in data set [2] (setting [8]) was 79% and 79.33%. Besides, the half-life (as a rule, how long it takes for the measured level to halve) in data set [2] (SD, rat, plasma, po, 10 mg/kg, PO 10 mg/kg (based on SIPI-409), single dose) was 2.66 h. The Cmax (usually the highest concentration seen after dosing) in data set [2] (SD, rat, plasma, po, 10 mg/kg, PO 10 mg/kg (based on SIPI-409), single dose, read-out: Cmax) turned out to be 376 ng/mL. The MRT inf in data set [2] (SD, rat, plasma, po, 10 mg/kg, PO 10 mg/kg (based on SIPI-409), single dose, read-out: MRT(0-∞)) amounted to 4.23 h. Further, the “Increase of bioavailability compared to SIPI-409 hydrochloride” value in data set [2] (oral administration) is recorded as 329%. Moreover, in data set [2] (rat, plasma, PO 10 mg/kg (based on SIPI-409), single dose, read-out: Tmax), the Tmax (commonly the time at which the peak concentration occurs) stood at 0.33 h. The “Stability 92.5% RH” value in data set [3] (listed as SIPI-409 phosphate) is listed as “satisfactory stabilities”; in data set [3] (listed as phosphate), “Stable”. In addition, the Solubility in water in data set [4] (in water, saturated solution shaken 12 hrs at 30° C., HPLC) is 9690 µg/mL. In addition, the “Solubility in water compared to SIPI-409 and SIPI-409 hydrochloride” value in data set [4] (in words) is listed as “significantly increased solubility in water”. The “Stability Light” value is reported as “satisfactory stabilities” in data set [5] (XRPD on day 0, 5, 10, 20 and 30, listed as SIPI-409 phosphate); “Stable” in data set [5] (XRPD on day 0, 5, 10, 20 and 30, listed as phosphate). Also, the “DVS Max Hygroscopicity” value in data set [6] (listed as SIPI-409 phosphate) and in data set [6] (listed as phosphate) was 0.7% throughout. Moreover, the results for the “Stability 60° C.” value in data set [7] (listed as SIPI-409 phosphate) and in data set [7] (listed as phosphate) were “satisfactory stabilities” and “Stable”, respectively.
